Key:
[1] = target: K-Ras G12C (Homo sapiens (Human), UniProt P01116+P62937, G12C); assay: Ras-Raf (BRAF RBD) disruption / FRET / MOA assay, KRAS G12C; type: biochemical; settings: KRAS G12C; Ras-Raf disruption/FRET/MOA assay; read-out: IC50* KRAS G12C FRET data
Method in brief: (§1)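 Ternary complex formation (Ras–compound–cyclophilin A) displacing BRAF RBD, monitored by TR-FRET. Three hours at 25° C with compound (top 30 μM final), then 1.5 h with the labelled antibodies. Lower ratio than DMSO indicates disruption; IC50 reported.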

[2] = target: K-Ras G13C (Homo sapiens (Human), UniProt P01116+P62937, G13C); assay: Ras-Raf (BRAF RBD) disruption / FRET / MOA assay, KRAS G13C; type: biochemical; settings: KRAS G13C; Ras-Raf disruption/FRET/MOA assay; read-out: IC50* KRAS G13C FRET data
K-Ras G13C, sequence (P01116-2 other isoform, or with tags, fused parts or gaps G13C): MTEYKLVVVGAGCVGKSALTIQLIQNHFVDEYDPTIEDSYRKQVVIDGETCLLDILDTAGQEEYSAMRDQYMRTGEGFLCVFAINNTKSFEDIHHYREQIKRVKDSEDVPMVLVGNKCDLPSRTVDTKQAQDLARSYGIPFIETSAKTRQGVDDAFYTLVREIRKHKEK
K-Ras G13C, sequence (P62937 whole entry): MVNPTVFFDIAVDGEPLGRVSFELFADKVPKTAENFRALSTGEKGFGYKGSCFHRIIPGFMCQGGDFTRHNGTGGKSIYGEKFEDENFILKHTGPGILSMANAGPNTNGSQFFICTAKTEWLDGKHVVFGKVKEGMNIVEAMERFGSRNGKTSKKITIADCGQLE
Method in brief: as §1

[3] = tested on: NCI-H358 cells (K-Ras G12C); assay: Potency assay: pERK in NCI-H358 cells; type: cell-based, human; settings: Homo sapiens, NCI-H358; H358 KRAS G12C; read-out: pERK EC50
Method in brief: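 Compounds are dosed as ten 3-fold dilutions from a 10 mM DMSO stock, in duplicate, and left on cells for 4 h at 37 °C, 5% CO2. Phospho-ERK1/2 is then quantified by AlphaLISA SureFire Ultra or In-Cell Western, and IC50 is derived from a 4-parameter sigmoid against log concentration.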

[4] = tested on: NCI-H358 (K-Ras G12C); assay: CellTiter-Glo cell viability assay, NCI-H358; type: cell-based, human; settings: Homo sapiens, NCI-H358, 120 h, NCI-H358, 5-day treatment; class symbols; read-out: Additional H358 Cell Viability assay data (K-Ras G12C, IC50)
Method in brief: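 Four-parameter logistic fits were applied to luminescence data normalized against DMSO-treated wells. Readings were taken on day 5 following direct compound addition, after roughly 30 minutes at room temperature.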

[5] = target: KRAS G13D (Homo sapiens (Human), UniProt P01116+P62937, G13D); assay: Ras-Raf (BRAF RBD) disruption / FRET / MOA assay, KRAS G13D; type: biochemical; settings: read-out: IC50* KRAS G13D FRET data
KRAS G13D, sequence (P01116-2 other isoform, or with tags, fused parts or gaps G13D): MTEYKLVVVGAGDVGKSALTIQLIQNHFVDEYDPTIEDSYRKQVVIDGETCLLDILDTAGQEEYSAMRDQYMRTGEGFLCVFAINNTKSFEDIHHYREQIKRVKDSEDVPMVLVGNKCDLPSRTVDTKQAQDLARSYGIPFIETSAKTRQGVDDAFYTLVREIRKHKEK
KRAS G13D, sequence (P62937 whole entry): as the sequence (P62937 whole entry) above
Method in brief: as §1

[6] = target: KRAS G12V (Homo sapiens (Human), UniProt P01116+P62937, G12V); assay: Ras-Raf (BRAF RBD) disruption / FRET / MOA assay, KRAS G12V; type: biochemical; settings: read-out: IC50* KRAS G12V FRET data
KRAS G12V, sequence (P01116-2 other isoform, or with tags, fused parts or gaps G12V): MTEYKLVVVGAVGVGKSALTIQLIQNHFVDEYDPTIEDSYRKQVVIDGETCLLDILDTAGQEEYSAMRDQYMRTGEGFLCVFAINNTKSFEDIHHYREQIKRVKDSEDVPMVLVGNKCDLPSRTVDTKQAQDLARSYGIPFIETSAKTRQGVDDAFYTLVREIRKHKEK
KRAS G12V, sequence (P62937 whole entry): as the sequence (P62937 whole entry) above
Method in brief: as §1

[7] = target: KRAS WT (Homo sapiens (Human), UniProt P01116+P62937); assay: Ras-Raf (BRAF RBD) disruption / FRET / MOA assay, KRAS WT; type: biochemical; settings: read-out: IC50* KRAS WT FRET data
KRAS WT, sequence (P01116-2 other isoform, or with tags, fused parts or gaps): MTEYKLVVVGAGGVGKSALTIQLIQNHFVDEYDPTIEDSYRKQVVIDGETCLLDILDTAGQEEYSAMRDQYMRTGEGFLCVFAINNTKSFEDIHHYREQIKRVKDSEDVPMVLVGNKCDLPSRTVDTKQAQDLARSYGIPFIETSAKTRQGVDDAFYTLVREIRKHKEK
KRAS WT, sequence (P62937 whole entry): as the sequence (P62937 whole entry) above
Method in brief: as §1

[8] = target: KRAS G12S (Homo sapiens (Human), UniProt P01116+P62937, G12S); assay: Ras-Raf (BRAF RBD) disruption / FRET / MOA assay, KRAS G12S; type: biochemical; settings: Ras-Raf disruption/FRET/MOA assay; class symbols; read-out: KRAS G12S FRET data IC50
KRAS G12S, sequence (P01116-2 other isoform, or with tags, fused parts or gaps G12S): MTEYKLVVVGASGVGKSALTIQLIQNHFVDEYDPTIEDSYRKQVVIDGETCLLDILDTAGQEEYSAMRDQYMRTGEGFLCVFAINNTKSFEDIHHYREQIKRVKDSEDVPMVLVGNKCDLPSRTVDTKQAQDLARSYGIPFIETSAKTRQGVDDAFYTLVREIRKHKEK
KRAS G12S, sequence (P62937 whole entry): as the sequence (P62937 whole entry) above
Method in brief: as §1

[9] = target: KRAS G12D (Homo sapiens (Human), UniProt P01116+P62937, G12D); assay: Ras-Raf (BRAF RBD) disruption / FRET / MOA assay, KRAS G12D; type: biochemical; settings: Ras-Raf disruption/FRET/MOA assay; class symbols; read-out: KRAS G12D FRET data IC50
KRAS G12D, sequence (P01116-2 other isoform, or with tags, fused parts or gaps G12D): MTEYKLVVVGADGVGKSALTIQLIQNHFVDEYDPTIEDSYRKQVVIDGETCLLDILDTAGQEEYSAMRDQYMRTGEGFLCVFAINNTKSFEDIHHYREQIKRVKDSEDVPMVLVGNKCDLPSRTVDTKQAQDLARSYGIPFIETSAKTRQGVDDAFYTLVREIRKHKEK
KRAS G12D, sequence (P62937 whole entry): as the sequence (P62937 whole entry) above
Method in brief: as §1

[10] = target: NRAS G12C (Homo sapiens (Human), UniProt P01111+P62937, G12C); assay: Ras-Raf (BRAF RBD) disruption / FRET / MOA assay, NRAS G12C; type: biochemical; settings: read-out: IC50* NRAS G12C FRET data
NRAS G12C, sequence (P01111 whole entry G12C): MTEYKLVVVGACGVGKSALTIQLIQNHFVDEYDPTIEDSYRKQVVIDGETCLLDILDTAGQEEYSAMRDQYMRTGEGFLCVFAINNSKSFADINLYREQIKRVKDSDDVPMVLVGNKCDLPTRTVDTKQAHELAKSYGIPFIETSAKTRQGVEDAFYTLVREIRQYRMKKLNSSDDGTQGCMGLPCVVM
NRAS G12C, sequence (P62937 whole entry): as the sequence (P62937 whole entry) above
Method in brief: as §1

K-Ras G12C, sequence (P01116-2 other isoform, or with tags, fused parts or gaps G12C): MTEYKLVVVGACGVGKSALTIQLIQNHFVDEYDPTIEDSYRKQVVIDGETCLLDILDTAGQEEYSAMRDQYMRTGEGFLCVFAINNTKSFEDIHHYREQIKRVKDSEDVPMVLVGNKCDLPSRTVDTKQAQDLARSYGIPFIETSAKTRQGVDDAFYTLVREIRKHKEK
K-Ras G12C, sequence (P62937 whole entry): as the sequence (P62937 whole entry) above

Compound	IC50 [1] [nM]	IC50 [2] [nM]	EC50 [3] [nM]	IC50 [4] [nM]	IC50 [5] [nM]	IC50 [6] [nM]	IC50 [7] [nM]	IC50 [8] [nM]	IC50 [9] [nM]	IC50 [10] [nM]
C=CC(=O)N1CC2CCC1CN2C(=O)N(C)[C@H](C(=O)N[C@H]1Cc2nc(cs2)-c2ccc3c(c2)c(c(-c2cccnc2[C@H](C)OC)n3CC)CC(C)(C)COC(=O)[C@@H]2CCCN(N2)C1=O)C(C)C [Example A420]	100 to 1000	100 to 1000	< 5000	10 to 100	1000 to 10000	100 to 1000	100 to 1000	100 to 1000	1000 to 10000	100 to 1000
CCn1c(-c2cccnc2[C@H](C)OC)c2c3cc(ccc31)-c1cccc(c1)C[C@H](NC(=O)[C@H](C(C)C)N(C)C(=O)[C@H]1CCN(C(=O)/C=C/CF)C1)C(=O)N1CCC[C@H](N1)C(=O)OCC(C)(C)C2 [Example A449]	100 to 1000	100 to 1000	< 5000	10 to 100	1000 to 10000	1000 to 10000	1000 to 10000	1000 to 10000	> 10000	100 to 1000
C=CC(=O)N1CCC2(C1)OCN([C@H](C(=O)N[C@H]1Cc3cccc(c3)-c3ccc4c(c3)c(c(-c3cccnc3[C@H](C)OC)n4CC)CC(C)(C)COC(=O)[C@@H]3CCCN(N3)C1=O)C(C)C)C2=O (some centres unmarked) [Example A459]	10 to 100	100 to 1000	< 5000	10 to 100	1000 to 10000	1000 to 10000	1000 to 10000	1000 to 10000	1000 to 10000	10 to 100
CCn1c(-c2cccnc2[C@H](C)OC)c2c3cc(ccc31)-c1cccc(c1)C[C@H](NC(=O)[C@H](C(C)C)N(C)C(=O)[C@@H]1CCN(C(=O)C#CC(C)(C)N3CCC3)C1)C(=O)N1CCC[C@H](N1)C(=O)OCC(C)(C)C2 [Example A476]	10 to 100	100 to 1000	< 5000	< 10	1000 to 10000	1000 to 10000	1000 to 10000	1000 to 10000	1000 to 10000	10 to 100
C=CC(=O)N1CC(OCC(C(=O)N[C@H]2Cc3cccc(c3)-c3ccc4c(c3)c(c(-c3cccnc3[C@H](C)OC)n4CC)CC(C)(C)COC(=O)[C@@H]3CCCN(N3)C2=O)C(C)C)C1 (some centres unmarked) [Example A483]	100 to 1000	1000 to 10000	< 5000	< 10	> 10000	1000 to 10000	1000 to 10000	> 10000	> 10000	100 to 1000
C=CC(=O)N1CC[C@H](C(=O)N(C)[C@H](C(=O)N[C@H]2Cc3cccc(c3)-c3ccc4c(c3)c(c(-c3cccnc3[C@H](C)OC)n4CC#N)CC(C)(C)COC(=O)[C@@H]3CCCN(N3)C2=O)C(C)C)C1 [Example A510]	10 to 100	100 to 1000	< 5000	10 to 100	1000 to 10000	1000 to 10000	1000 to 10000	1000 to 10000	1000 to 10000	10 to 100
CCn1c(-c2cccnc2[C@H](C)OC)c2c3cc(ccc31)-c1cccc(c1)C[C@H](NC(=O)[C@H](C(C)C)N(C)C(=O)C1CCN(C(=O)C#C[C@@H]3CC(F)(F)CN3C)C1)C(=O)N1CCC[C@H](N1)C(=O)OCC(C)(C)C2 (some centres unmarked) [Example A526]	10 to 100	1000 to 10000	< 5000	< 10	> 10000	1000 to 10000	1000 to 10000	1000 to 10000	> 10000	10 to 100
CCn1c(-c2cccnc2[C@H](C)OC)c2c3cc(ccc31)-c1cc(O)cc(c1)C[C@H](NC(=O)[C@H](C(C)C)N(C)C(=O)[C@H]1CCN(C(=O)/C=C/C(F)(F)F)C1)C(=O)N1CCC[C@H](N1)C(=O)OCC(C)(C)C2 [Example A527]	< 10	10 to 100	< 5000	< 10	10 to 100	10 to 100	10 to 100	10 to 100	100 to 1000	< 10
CCn1c(-c2cccnc2[C@H](C)OC)c2c3cc(ccc31)-c1cccc(c1)C[C@H](NC(=O)[C@H](C(C)C)N(C)C(=O)[C@H]1CCN(C(=O)C#C[C@@H]3COCCN3C)C1)C(=O)N1CCC[C@H](N1)C(=O)OCC(C)(C)C2 [Example A528]	10 to 100	1000 to 10000	< 5000	< 10	> 10000	1000 to 10000	1000 to 10000	1000 to 10000	> 10000	10 to 100
CCn1c(-c2cccnc2[C@H](C)OC)c2c3cc(ccc31)-c1cc(O)cc(c1)C[C@H](NC(=O)[C@H](C(C)C)N(C)C(=O)c1ncc(NC(=O)/C=C/CN(C)C)n1C)C(=O)N1CCC[C@H](N1)C(=O)OCC(C)(C)C2 [Example A529]	< 10	< 10	< 5000	10 to 100	100 to 1000	100 to 1000	100 to 1000	100 to 1000	100 to 1000	< 10
CCn1c(-c2cccnc2[C@H](C)OC)c2c3cc(ccc31)-c1cccc(c1)C[C@H](NC(=O)[C@H](C(C)C)N(C)C(=O)[C@H]1CCN(C(=O)C#CC3(N(C)C)CCOC3)C1)C(=O)N1CCC[C@H](N1)C(=O)OCC(C)(C)C2 (some centres unmarked) [Example A533]	10 to 100	1000 to 10000	< 5000	< 10	> 10000	1000 to 10000	1000 to 10000	1000 to 10000	> 10000	10 to 100

Reference: patent publication US11566007B2, “Ras inhibitors” (Revolution Medicines, Inc., priority 2019, dated 2023)
